Consider one molecule from publication PMC8112869, “Therapeutic inhibition of keratinocyte TRPV3 sensory channel by local anesthetic dyclonine” (eLife, 2021).

The target in this test is T1, TRPV3 N643A (Mus musculus, UniProt Q8K424, N643A).
T1 construct: expressed in transfected cells; host or cells: HEK 293T
The test is described as follows: Whole-cell recording of TRPV3 mutant N643A in HEK 293T cells. Type of test: cell-based. The conditions noted are these: 2-APB (1 mM)-evoked, –60 mV, read-out: IC50 for inhibition of TRPV3 mutant. The source says:
The WT mouse TRPV3 (mTRPV3), human TRPV3 (hTRPV3), rat TRPV1, rat TRPV2, rat TRPM8, and mouse TRPA1 cDNAs were generously provided by Dr. Feng Qin (State University of New York at Buffalo, Buffalo, USA). The GFP-mTRPV3 WT and the mutants (mTRPV3-G573S and mTRPV3-G573C) in pcDNA4/TO vector were gifts from Dr. Michael X Zhu (The University of Texas Health Science Center at Houston, Houston, USA). The WT fTRPV3 was kindly provided by Dr. Makoto Tominaga (Department of Physiological Sciences, SOKENDAI, Okazaki, Japan). All mutations were made using the overlap-extension polymerase chain reaction method as previously described ([Tian et al., 2019]). The resulting mutations were then verified by DNA sequencing. […]
Conventional whole-cell and excised patch-clamp recording methods were used. […] For a subset of recordings, currents were amplified using an Axopatch 200B amplifier (Molecular Devices, Sunnyvale, CA) and recorded through a BNC-2090/MIO acquisition system (National Instruments, Austin, TX) using QStudio developed by Dr. Feng Qin at State University of New York at Buffalo. […] As determined by the conductance tests, the solution around a patch under study was fully controlled by the application of a flow rate of 100 μl/min or greater. […]

Each structure is given as a SMILES string.

T1 sequence (Q8K424 whole entry N643A): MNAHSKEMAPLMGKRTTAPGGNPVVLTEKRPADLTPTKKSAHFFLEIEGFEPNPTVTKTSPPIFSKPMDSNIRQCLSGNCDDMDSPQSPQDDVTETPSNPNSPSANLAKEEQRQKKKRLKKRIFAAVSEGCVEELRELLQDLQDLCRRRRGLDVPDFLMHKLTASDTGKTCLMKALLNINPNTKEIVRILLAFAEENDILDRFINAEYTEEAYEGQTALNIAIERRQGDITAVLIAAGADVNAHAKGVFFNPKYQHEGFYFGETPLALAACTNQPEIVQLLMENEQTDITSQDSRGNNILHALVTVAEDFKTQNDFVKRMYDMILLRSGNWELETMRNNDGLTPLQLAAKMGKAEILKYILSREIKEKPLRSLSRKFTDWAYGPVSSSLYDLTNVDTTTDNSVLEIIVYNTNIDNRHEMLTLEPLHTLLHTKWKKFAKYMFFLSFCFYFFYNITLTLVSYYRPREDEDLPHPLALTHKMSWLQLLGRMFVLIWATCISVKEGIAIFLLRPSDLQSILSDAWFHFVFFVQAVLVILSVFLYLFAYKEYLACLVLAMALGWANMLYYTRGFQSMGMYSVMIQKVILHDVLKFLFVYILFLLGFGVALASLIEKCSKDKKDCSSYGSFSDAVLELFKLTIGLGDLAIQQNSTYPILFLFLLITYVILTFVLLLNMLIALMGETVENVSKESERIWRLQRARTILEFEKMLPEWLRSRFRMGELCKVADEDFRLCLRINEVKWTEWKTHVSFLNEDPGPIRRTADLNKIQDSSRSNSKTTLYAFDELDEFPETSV

The term IC50 denotes the midpoint of a concentration-inhibition curve. With `CCCCOc1ccc(C(=O)CCN2CCCCC2)cc1` [dyclonine], the IC50 is 37.7 ± 5.1 µM.
